Reference: patent US20140187548A1, “6 SUBSTITUTED IMIDAZOPYRAZINES FOR USE AS MPS-1 AND TKK INHIBITORS IN THE TREATMENT OF HYPERPROLIFERATIVE DISORDERS” (BAYER INTELLECTUAL PROPERTY GMBH, priority 2010, published 2014)

Target: T1, human kinase Mps-1 (Homo sapiens, UniProt P33981)
T1 construct: N-terminally GST-tagged human full length recombinant Mps-1 kinase; GST (N); purchased Invitrogen, Karslruhe, Germany PV4071
T1 sequence (P33981 1-857): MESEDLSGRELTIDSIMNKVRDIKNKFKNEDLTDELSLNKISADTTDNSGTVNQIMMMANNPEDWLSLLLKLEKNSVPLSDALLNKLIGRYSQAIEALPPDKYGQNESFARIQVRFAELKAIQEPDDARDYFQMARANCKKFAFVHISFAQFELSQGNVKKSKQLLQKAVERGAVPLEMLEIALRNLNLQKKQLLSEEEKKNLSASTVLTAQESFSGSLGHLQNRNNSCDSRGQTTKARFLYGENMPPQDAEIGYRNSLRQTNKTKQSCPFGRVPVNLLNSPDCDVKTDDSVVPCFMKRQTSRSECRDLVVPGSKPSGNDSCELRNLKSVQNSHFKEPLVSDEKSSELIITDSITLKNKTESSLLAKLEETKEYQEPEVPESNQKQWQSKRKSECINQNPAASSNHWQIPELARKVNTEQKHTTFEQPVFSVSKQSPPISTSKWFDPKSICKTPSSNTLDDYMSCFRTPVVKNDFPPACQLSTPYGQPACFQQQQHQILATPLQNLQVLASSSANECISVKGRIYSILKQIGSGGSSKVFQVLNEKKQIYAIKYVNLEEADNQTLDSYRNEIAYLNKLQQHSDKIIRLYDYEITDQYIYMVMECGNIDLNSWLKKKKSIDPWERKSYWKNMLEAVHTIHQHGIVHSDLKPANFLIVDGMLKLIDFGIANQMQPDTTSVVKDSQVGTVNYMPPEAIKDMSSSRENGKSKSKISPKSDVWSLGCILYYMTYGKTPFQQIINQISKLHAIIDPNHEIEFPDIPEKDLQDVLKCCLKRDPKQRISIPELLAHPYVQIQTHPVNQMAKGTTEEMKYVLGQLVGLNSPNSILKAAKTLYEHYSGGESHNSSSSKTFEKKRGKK
Test: Mps-1 kinase assay (TR-FRET)
Format: biochemical
Conditions: N-terminally GST-tagged human full length recombinant Mps-1; 10 μM ATP; 1 μM peptide substrate; 15 min pre-incubation; 60 min at 22° C.
In short: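 TR-FRET read-out: after 1 h binding at 22° C, Eu-labelled anti-phospho-Ser/Thr antibody transfers to SA-XLent on the phosphorylated biotinylated peptide. The enzyme is GST-tagged full-length human Mps-1, typically about 1 nM final, in the linear range.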

| IC50 [nM] | SMILES |
| --- | --- |
| 5.1 | Cc1cc(-c2cnc3c(NCC(C)C)nc(-c4ccc(F)cc4)cn23)ccc1C(=O)NC1CC1 [Example 10-3, N-cyclopropyl-4-{6-(4-fluorophenyl)-8-[(2-methylpropyl)amino]imidazo[1,2-a]pyrazin-3-yl}-2-methylbenzamide] |
| 3.5 | CC(C)CNc1nc(-c2ccc(O)cc2)cn2c(-c3ccc(C(=O)NC4CC4)cc3)cnc12 [Example 1-67, N-cyclopropyl-4-{6-(4-hydroxyphenyl)-8-[(2-methylpropyl)amino]imidazo[1,2-a]pyrazin-3-yl}benzamide] |
| 14.1 | CCN(CC)CCCCNc1nc(-c2ccccc2)cn2c(-c3ccc(C(=O)NC4CC4)cc3)cnc12 [Example 2-37, N-cyclopropyl-4-(8-{[4-(diethylamino)butyl]amino}-6-phenylimidazo[1,2-a]pyrazin-3-yl)benzamide] |
| 1 | N#CCCNc1nc(-c2ccccc2)cn2c(-c3ccc(C(=O)NC4CC4)cc3)cnc12 [Example 2-35, 4-{8-[(2-cyanoethyl)amino]-6-phenylimidazo[1,2-a]pyrazin-3-yl}-N-cyclopropyl-benzamide] |
| 4.9 | O=C(NC1CC1)c1ccc(-c2cnc3c(NCc4ccc(Cl)s4)nc(-c4ccccc4)cn23)cc1 [Example 2-60, 4-(8-{[(5-chlorothiophen-2-yl)methyl]amino}-6-phenylimidazo [1,2-a]pyrazin-3-yl)-N-cyclopropylbenzamide] |
| 19 | NC(=O)CNc1nc(-c2ccccc2)cn2c(-c3ccc(C(=O)NC4CC4)cc3)cnc12 [Example 2-30, 4-{8-[(2-amino-2-oxoethyl)amino]-6-phenylimidazo[1,2-a]pyrazin-3-yl}-N-cyclopropyl-benzamide] |
| 5.6 | Cn1ccc(CNc2nc(-c3ccccc3)cn3c(-c4ccc(C(=O)NC5CC5)cc4)cnc23)n1 [Example 2-53, N-cyclopropyl-4-(8-{[(1-methyl-1H-pyrazol-3-yl)methyl]amino}-6-phenylimidazo [1,2-a]pyrazin-3-yl)benzamide] |
| 42.4 | CC(C)CNc1nc(-c2cc(F)cc(F)c2)cn2c(-c3ccc(C(=O)NC4CC4)cc3)cnc12 [Example 1-60, N-cyclopropyl-4-{6-(3,5-difluorophenyl)-8-[(2-methylpropyl)amino]imidazo[1,2-a]pyrazin-3-yl}benzamide] |
| 3.6 | Cc1cc(-c2cnc3c(NCCC(F)(F)F)nc(-c4ccc(F)cc4)cn23)ccc1C(=O)NC1CC1 [Example 10-1, N-cyclopropyl-4-{6-(4-fluorophenyl)-8-[(3,3,3-trifluoropropyl)amino]imidazo[1,2-a]pyrazin-3-yl}-2-methylbenzamide] |
| 21 | CC(C)CNc1nc(-c2ccc3cc[nH]c3c2)cn2c(-c3ccc(C(=O)NC4CC4)cc3)cnc12 [Example 1-23, N-cyclopropyl-4-{6-(1H-indol-6-yl)-8-[(2-methyl-propyl)amino]imidazo [1,2-a]pyrazin-3-yl} benzamide] |
| 1.4 | O=C(NC1CC1)c1ccc(-c2cnc3c(NCc4ccccc4F)nc(-c4ccccc4)cn23)cc1 [Example 2-13, N-cyclopropyl-4-{8-[(2-fluorobenzyl)amino]-6-phenylimidazo[1,2-a]pyrazin-3-yl}benzamide] |
| 1.6 | CC(C)CNc1nc(-c2cccc(C(=O)NC3CC3)c2)cn2c(-c3ccc(C(=O)NC4CC4)cc3)cnc12 [Example 1-56, N-cyclopropyl-3-{3-[4-(cyclopropylcarbamoyl)phenyl]-8-[(2-methylpropyl)amino]imidazo [1,2-a]pyrazin-6-yl} benzamide] |
| 35.7 | CN(C)CCNc1nc(-c2ccccc2)cn2c(-c3ccc(C(=O)NC4CC4)cc3)cnc12 [Example 2-34, N-cyclopropyl-4-(8-{[2-(dimethylamino)ethyl]amino}-6-phenylimidazo[1,2-a]pyrazin-3-yl)benzamide] |
| 1.3 | CC(C)CNc1nc(-c2cccc3cnccc23)cn2c(-c3ccc(C(=O)NC4CC4)cc3)cnc12 [Example 1-32, N-cyclopropyl-4-{6-(iso-quinolin-5-yl)-8-[(2-methylpropyl)amino]imidazo[1,2-a]pyrazin-3-yl}benzamide] |
| 1.9 | CC(C)CNc1nc(-c2cccc(S(N)(=O)=O)c2)cn2c(-c3ccc(C(=O)NC4CC4)cc3)cnc12 [Example 1-129, N-cyclopropyl-4-[8-(isobutylamino)-6-(3-sulfamoylphenyl)imidazo [1,2-a]pyrazin-3-yl] benzamide] |
| 6.7 | CC(C)CNc1nc(-c2cccc(S(=O)(=O)N3CCOCC3)c2)cn2c(-c3ccc(C(=O)NC4CC4)cc3)cnc12 [Example 1-130, N-cyclopropyl-4-{8-(isobutylamino)-6-[3-(morpholin-4-ylsulfonyl)phenyl]imidazo[1,2-a]pyrazin-3-yl}benzamide] |
| 3.2 | CSc1ccccc1-c1cn2c(-c3ccc(C(=O)NC4CC4)cc3)cnc2c(NCC(C)C)n1 [Example 1-70, N-cyclopropyl-4-{8-[(2-methylpropyl)amino]-6-[2-(methylsulfanyl)phenyl]imidazo[1,2-a]pyrazin-3-yl}benzamide] |
| 31.4 | CC(C)CNc1nc(-c2ccc(OC(F)(F)F)cc2)cn2c(-c3ccc(C(=O)NC4CC4)cc3)cnc12 [Example 1-52, N-cyclopropyl-4-{8-[(2-methylpropyl)amino]-6-[4-(trifluoromethoxy)phenyl]imidazo[1,2-a]pyrazin-3-yl}benzamide] |
| 2.3 | O=C(NC1CC1)c1ccc(-c2cnc3c(NCC4CCC4)nc(-c4ccccc4)cn23)cc1 [Example 2-73, 4-{8-[(Cyclobutylmethyl)amino]-6-phenylimidazo[1,2-a]pyrazin-3-yl}-N-cyclopropylbenzamide] |
| 1.5 | CC(C)CNc1nc(-c2ccc(C(=O)NC3CC3)cc2)cn2c(-c3ccc(C(=O)NC4CC4)cc3)cnc12 [Example 1-30, 4,4′-{8-[(2-methylpropyl)amino]imidazo[1,2-a]pyrazine-3,6-diyl}bis (N-cyclopropylbenzamide)] |
| 3.7 | CC(C)CNc1nc(-c2ccccc2F)cn2c(-c3ccc(C(=O)NC4CC4)cc3)cnc12 [Example 1-51, N-cyclopropyl-4-{6-(2-fluorophenyl)-8-[(2-methylpropyl)amino]imidazo[1,2-a]pyrazin-3-yl}benzamide] |
| 7.1 | CC(C)CNc1nc(C(C)C)cn2c(-c3ccc(C(=O)NC4CC4)cc3)cnc12 [Example 11-2, N-cyclopropyl-4-{8-[(2-methylpropyl)amino]-6-(propan-2-yl)imidazo[1,2-a]pyrazin-3-yl} benzamide] |
| 2.5 | CC(C)CNc1nc(-c2ccc(S(C)(=O)=O)cc2)cn2c(-c3ccc(C(=O)NC4CC4)cc3)cnc12 [Example 1-75, N-cyclopropyl-4-{8-[(2-methylpropyl)amino]-6-[4-(methylsulfonyl)phenyl]imidazo[1,2-a]pyrazin-3-yl}benzamide] |
| 5.8 | CCOc1cccc(-c2cn3c(-c4ccc(C(=O)NC5CC5)cc4)cnc3c(NCC(C)C)n2)c1 [Example 1-44, N-cyclopropyl-4-{6-(3-ethoxyphenyl)-8-[(2-methylpropyl)amino]imidazo[1,2-a]pyrazin-3-yl}benzamide] |
| 7.6 | CC(C)CNc1nc(-c2ccc(N(C)C)cc2)cn2c(-c3ccc(C(=O)NC4CC4)cc3)cnc12 [Example 1-92, N-cyclopropyl-4-{6-[4-(dimethylamino)phenyl]-8-[(2-methylpropyl)amino]imidazo[1,2-a]pyrazin-3-yl}benzamide] |
| 6.9 | O=C(NC1CC1)c1ccc(-c2cnc3c(NCCCN4CCOCC4)nc(-c4ccccc4)cn23)cc1 [Example 2-3, N-cyclopropyl-4-(8-{[3-(morpholin-4-yl)propyl]amino}-6-phenylimidazo[1,2-a]pyrazin-3-yl)benzamide] |
| 15.2 | CC(C)CNc1nc(-c2cccc(Cl)c2)cn2c(-c3ccc(C(=O)NC4CC4)cc3)cnc12 [Example 1-37, 4-{6-(3-chlorophenyl)-8-[(2-methylpropyl)amino]imidazo[1,2-a]pyrazin-3-yl}-N-cyclopropyl-benzamide] |
| 7.7 | CC(C)CNc1nc(-c2ccc(F)c(F)c2)cn2c(-c3ccc(C(=O)NC4CC4)cc3)cnc12 [Example 1-63, N-cyclopropyl-4-{6-(3,4-difluorophenyl)-8-[(2-methylpropyl)amino]imidazo[1,2-a]pyrazin-3-yl}benzamide] |
| 10.3 | O=C(NC1CC1)c1ccc(-c2cnc3c(NCCc4ccccn4)nc(-c4ccccc4)cn23)cc1 [Example 2-24, N-cyclopropyl-4-(6-phenyl-8-{[2-(pyridin-2-yl)ethyl]amino}imidazo[1,2-a]pyrazin-3-yl) benzamide] |
